Test results reported in US8609669B2, “Potassium channel modulators” (AbbVie Inc., priority 2010, dated 2013).

Target: T1, KCNQ 2/3 channels (HEK293 cells stably expressing human KCNQ2 and KCNQ3 subunits) (Homo sapiens, UniProt O43525+O43526)
T1 construct: expressed in transfected cells; host or cells: HEK293
Experiment: KCNQ2/3 channel activation, thallium flux FLIPR assay (BTC-AM dye)
Type: cell-based
Settings: for Emax: HEK293, maximum response relative to response of retigabine at 10 μM (set at 100%), read-out: Max. %; for EC50: HEK293 cells expressing human KCNQ2 and KCNQ3, FLIPR thallium flux
In short: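 HEK293 cells stably expressing human KCNQ2/KCNQ3 were loaded with BTC-AM and exposed to compound for 4 min in pH 7.3 gluconate buffer with ouabain. Thallium flux was triggered with 6 mM TlNO3 and 10 mM K2SO4 (stock additions) and fluorescence (ex 488, em 540 nm) recorded for 3 min. EC50 came from responses over baseline; maximal response is relative to 10 μM retigabine (100%).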

SMILES	Emax	EC50
O=C(NCC1CCCCC1)Nc1nn2cccnc2c1-c1ccc(Cl)cc1 [Example 99, 1-[3-(4-chlorophenyl)pyrazolo[1,5-a]pyrimidin-2-yl]-3-(cyclohexylmethyl)urea]	94%	1 to 10 µM
Cc1cc(C)n2nc(NC(=O)CCc3ccccc3)c(-c3cccc(F)c3)c2n1 [Example 85, N-[3-(3-fluorophenyl)-5,7-dimethylpyrazolo[1,5-a]pyrimidin-2-yl]-3-phenylpropanamide]	131%	0.5 to 1 µM
CCC1(c2c(NC(=O)CC3CC4CCC3C4)nn3cccnc23)CCCCC1 (racemic) [Example 146, (±)-exo-2-bicyclo[2.2.1]hept-2-yl-N-[3-(1-ethylcyclohexyl)pyrazolo[1,5-a]pyrimidin-2-yl]acetamide]	151%	0.5 to 1 µM
Cc1cnc2c(-c3ccc(F)cc3)c(NC(=O)Cc3ccccc3)nn2c1 [Example 25, N-[3-(4-fluorophenyl)-6-methylpyrazolo[1,5-a]pyrimidin-2-yl]-2-phenylacetamide]	171%	0.1 to 0.5 µM
Cc1ccc(-c2c(NC(=O)Cc3ccccc3)nn3cccnc23)cc1F [Example 19, N-[3-(3-fluoro-4-methylphenyl)pyrazolo[1,5-a]pyrimidin-2-yl]-2-phenylacetamide]	77%	1 to 10 µM
Cc1ccnc2c(CC(C)(C)C)c(NC(=O)CCC3CCCCC3)nn12 [Example 37, 3-cyclohexyl-N-[3-(2,2-dimethylpropyl)-7-methylpyrazolo[1,5-a]pyrimidin-2-yl]propanamide]	166%	< 0.1 µM
CC(C)c1c(NC(=O)COC2CCCC2)nn2cccnc12 [Example 133, 2-(cyclopentyloxy)-N-(3-isopropylpyrazolo[1,5-a]pyrimidin-2-yl)acetamide]	7%	> 10 µM
Cc1cc(C)n2nc(NC(=O)CCc3ccccc3)c(-c3ccc(F)cc3)c2n1 [Example 29, N-[3-(4-fluorophenyl)-5,7-dimethylpyrazolo[1,5-a]pyrimidin-2-yl]-3-phenylpropanamide]	166%	0.1 to 0.5 µM
COc1cccc(CC(=O)Nc2nn3c(C)cc(C)nc3c2-c2cccc(Cl)c2)c1 [Example 54, N-[3-(3-chlorophenyl)-5,7-dimethylpyrazolo[1,5-a]pyrimidin-2-yl]-2-(3-methoxyphenyl)acetamide]	67%	1 to 10 µM
Cc1cnc2c(-c3cccc(F)c3)c(NC(=O)CC3CCCC3)nn2c1 [Example 83, 2-cyclopentyl-N-[3-(3-fluorophenyl)-6-methylpyrazolo[1,5-a]pyrimidin-2-yl]acetamide]	139%	0.1 to 0.5 µM
COc1ccc(CC(=O)Nc2nn3cc(C)cnc3c2CC(C)(C)C)cc1 [Example 18, N-[3-(2,2-dimethylpropyl)-6-methylpyrazolo[1,5-a]pyrimidin-2-yl]-2-(4-methoxyphenyl)acetamide]	156%	1 to 10 µM
CC(C)(C)c1c(NC(=O)C[C@@H]2CC[C@H]3C[C@@H]2C3(C)C)nn2cccnc12 [Example 171, N-(3-tert-butylpyrazolo[1,5-a]pyrimidin-2-yl)-2-[(1S,2S,5S)-6,6-dimethylbicyclo[3.1.1]hept-2-yl]acetamide]	138%	< 0.1 µM
COc1cccc(CC(=O)Nc2nn3cc(C)cnc3c2-c2ccc(OC(F)(F)F)cc2)c1 [Example 8, 2-(3-methoxyphenyl)-N-{6-methyl-3-[4-(trifluoromethoxy)phenyl]pyrazolo[1,5-a]pyrimidin-2-yl}acetamide]	140%	0.5 to 1 µM
O=C(CC12CC3CC(CC(C3)C1)C2)Nc1nn2cccnc2c1-c1ccc(Cl)cc1 [Example 162, 2-(adamantan-1-yl)-N-[3-(4-chlorophenyl)pyrazolo[1,5-a]pyrimidin-2-yl]acetamide]	128%	0.5 to 1 µM
Cc1cnc2c(-c3ccc(C(F)(F)F)cc3)c(NC(=O)CCc3ccccc3)nn2c1 [Example 59, N-{6-methyl-3-[4-(trifluoromethyl)phenyl]pyrazolo[1,5-a]pyrimidin-2-yl}-3-phenylpropanamide]	123%	0.1 to 0.5 µM
CC(C)(C)/C=C/c1c(NC(=O)CC(C)(C)C)nn2cccnc12 [Example 144, N-{3-[(1E)-3,3-dimethylbut-1-en-1-yl]pyrazolo[1,5-a]pyrimidin-2-yl}-3,3-dimethylbutanamide]	174%	0.1 to 0.5 µM
CC(C)(C)CC(=O)Nc1nn2cccnc2c1-c1cccc(OC(F)(F)F)c1 [Example 22, 3,3-dimethyl-N-{3-[3-(trifluoromethoxy)phenyl]pyrazolo[1,5-a]pyrimidin-2-yl}butanamide]	141%	1 to 10 µM
CC(C)(C)c1c(NC(=O)CCC2CCCCC2)nn2cccnc12 [Example 132, N-(3-tert-butylpyrazolo[1,5-a]pyrimidin-2-yl)-3-cyclohexylpropanamide]	142%	< 0.1 µM

SMILES	Emax	EC50
CC(C)(C)c1c(NC(=O)/C=C/c2ccccc2)nn2cccnc12 [Example 136, (2E)-N-(3-tert-butylpyrazolo[1,5-a]pyrimidin-2-yl)-3-phenylacrylamide]	8%	> 10 µM
O=C(NCC1CCOCC1)Nc1nn2cccnc2c1-c1ccc(Cl)cc1 [Example 103, 1-[3-(4-chlorophenyl)pyrazolo[1,5-a]pyrimidin-2-yl]-3-(tetrahydro-2H-pyran-4-ylmethyl)urea]	8%	> 10 µM
CC(C)(C)c1c(NC(=O)CC2CC3CCC2C3)nn2cccnc12 (racemic) [Example 121, (±)-exo-2-bicyclo[2.2.1]hept-2-yl-N-(3-tert-butylpyrazolo[1,5-a]pyrimidin-2-yl)acetamide]	150%	< 0.1 µM
CC(C)(C)c1c(NC(=O)CC2CCc3ccccc32)nn2cccnc12 (racemic) [Example 172, (±)-N-(3-tert-butylpyrazolo[1,5-a]pyrimidin-2-yl)-2-(2,3-dihydro-1H-inden-1-yl)acetamide]	20%	> 10 µM
Cc1cnc2c(-c3ccc(C)c(F)c3)c(NC(=O)CCC3CCCC3)nn2c1 [Example 20, 3-cyclopentyl-N-[3-(3-fluoro-4-methylphenyl)-6-methylpyrazolo[1,5-a]pyrimidin-2-yl]propanamide]	120%	< 0.1 µM
O=C(Cc1cccnc1)Nc1nn2cccnc2c1-c1ccc(OC(F)(F)F)cc1 [Example 98, 2-(pyridin-3-yl)-N-{3-[4-(trifluoromethoxy)phenyl]pyrazolo[1,5-a]pyrimidin-2-yl}acetamide]	72.3%	> 10 µM
Cc1cc(C)n2nc(NC(=O)Cc3ccc(F)cc3)c(-c3ccccc3)c2n1 [Example 96, N-(5,7-dimethyl-3-phenylpyrazolo[1,5-a]pyrimidin-2-yl)-2-(4-fluorophenyl)acetamide]	206%	0.1 to 0.5 µM
CC(C)(C)c1c(NC(=O)CC2CCCC2)nn2cccnc12 [Example 154, N-(3-tert-butylpyrazolo[1,5-a]pyrimidin-2-yl)-2-cyclopentylacetamide]	188%	1 to 10 µM
O=C(Cc1ccccn1)Nc1nn2cccnc2c1-c1ccc(Cl)cc1 [Example 100, N-[3-(4-chlorophenyl)pyrazolo[1,5-a]pyrimidin-2-yl]-2-(pyridin-2-yl)acetamide]	-1%	> 10 µM
Cc1cc(C)n2nc(NC(=O)CCC3CCCC3)c(-c3ccc(Cl)cc3)c2n1 [Example 43, N-[3-(4-chlorophenyl)-5,7-dimethylpyrazolo[1,5-a]pyrimidin-2-yl]-3-cyclopentylpropanamide]	157%	< 0.1 µM
Cc1cnc2c(Cc3ccc(F)cc3)c(NC(=O)CCC3CCCCC3)nn2c1 [Example 77, 3-cyclohexyl-N-[3-(4-fluorobenzyl)-6-methylpyrazolo[1,5-a]pyrimidin-2-yl]propanamide]	133%	< 0.1 µM
CC(C)c1ccc(CC(=O)Nc2nn3cccnc3c2C(C)(C)C)cc1 [Example 166, N-(3-tert-butylpyrazolo[1,5-a]pyrimidin-2-yl)-2-(4-isopropylphenyl)acetamide]	154%	0.5 to 1 µM
CC(C)(C)c1c(NC(=O)CC2CCCCC2)nn2cccnc12 [Example 130, N-(3-tert-butylpyrazolo[1,5-a]pyrimidin-2-yl)-2-cyclohexylacetamide]	131%	0.1 to 0.5 µM
Cc1ccnc2c(-c3cccc(Cl)c3)c(NC(=O)CCc3ccccc3)nn12 [Example 49, N-[3-(3-chlorophenyl)-7-methylpyrazolo[1,5-a]pyrimidin-2-yl]-3-phenylpropanamide]	123%	1 to 10 µM
Cc1cc(C)n2nc(NC(=O)CC3CCCCC3)c(-c3ccccc3)c2n1 [Example 94, 2-cyclohexyl-N-(5,7-dimethyl-3-phenylpyrazolo[1,5-a]pyrimidin-2-yl)acetamide]	155%	< 0.1 µM
Cc1cnc2c(-c3ccc(Cl)c(C)c3)c(NC(=O)CCc3ccccc3)nn2c1 [Example 44, N-[3-(4-chloro-3-methylphenyl)-6-methylpyrazolo[1,5-a]pyrimidin-2-yl]-3-phenylpropanamide]	73%	1 to 10 µM
CC(C)(C)CC(=O)Nc1nn2cccnc2c1C(C)(C)C [Example 106, N-(3-tert-butylpyrazolo[1,5-a]pyrimidin-2-yl)-3,3-dimethylbutanamide]	67%	1 to 10 µM
Cc1cc(C)n2nc(NC(=O)CCC3CCCC3)c(-c3ccccc3)c2n1 [Example 95, 3-cyclopentyl-N-(5,7-dimethyl-3-phenylpyrazolo[1,5-a]pyrimidin-2-yl)propanamide]	167%	< 0.1 µM
